Data as given in PubChem BioAssay AID1919010 (Molecular Pharmacology Branch, DTP, NCI, 2023).

System: Hs578T complex spheroid growth, percent test/control
Experiment: Anticancer human tumor Hs578T cell line growth inhibition [AhR];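 also: luminescent viability signal as a proxy for spheroid growth; spheroids exposed to agents for one week after three days of growth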
Details: for IC50: curve of first compound; for viability, T/C: stronger effect = lower value
Description: Multicellular complex tumor spheroid response to aryl hydrocarbon receptor antagonists in combination with a variety of drugs and investigational agents in selected tumor cell lines
The current study was undertaken to assess response to aryl hydrocarbon receptor antagonists in combination with standard-of-care drugs and investigational agents in solid tumor complex spheroid models. Complex spheroids include a stromal component modeled by human endothelial cells (HUVEC) and fibroblasts modeled by human mesenchymal stem cells (MSCs). The concentration ranges selected for each drug and investigational agent were based upon clinically achievable concentrations if the clinical Cmax of the agent was known.
Compounds. The drugs and investigational agents: BAY 2416964 (NSC825713), GNF351 (NSC835774), CH-223191 (NSC835775), CPI-455 (NSC825282), aza-TdCyd (NSC777586), decitabine (NSC127716), belinostat (NSC758774), entinostat (NSC756642), pevonedistat (NSC761192), tazemetostat (NSC777109), talazoparib (NSC765396), olaparib (NSC753686), selinexor (NSC780203), nedisertib (M3814, NSC802822), bortezomib (NSC756655), venetoclax (NSC766270), doxorubicin (NSC123127), elimusertib (BAY189344, NSC800525), ceralasertib (AZD6738, NSC777638), TAK-243 (NSC785004), alisertib (NSC759677), etoposide (NSC141540), topotecan (NSC609699), eribulin (NSC707389), gemcitabine (NSC613327), carboplatin (NSC241240), cisplatin (NSC119875), and SN-38 (NSC673596) were obtained from the National Cancer Institute (NCI) Developmental Therapeutics Program Chemical Repository (32). The FDA-approved anticancer drug set is available from the Developmental Therapeutics Program at https://dtp.cancer.gov/organization/dscb/obtaining/available plates.htm. […] The stock solutions were prepared in dimethyl sulfoxide (DMSO, Sigma-Aldrich, St. Louis, MO, cat. D2650), except for the platinum compounds which were prepared in saline (Quality Biological, Gaithersburg, MD, cat. 114-055-101), at 800-fold the tested concentration and stored at -70 degrees C prior to their use. All drugs and investigational agents were tested over a range starting from a high concentration at or near the clinical Cmax and decreasing in half-log increments. If the clinical Cmax for an agent had not been determined, the highest concentration tested was 10 microM (Table 1).
Cell Culture. All cells were maintained in an incubator at 37 degrees C and 5% CO2 with 95% humidity. The PDC lines were cultured according to standard operating procedures established by the NCI PDMR (https://pdmr.cancer.gov). Briefly, all PDCs were thawed and cultured in Matrigel-coated flasks prepared with a working solution of 1X Ham's F-12 nutrient mix, without supplementation (Invitrogen, Waltham, MA, cat. 11765054), 100 U/mL penicillin-streptomycin (Invitrogen, cat. 15140122), and 2.5% Matrigel (Corning Inc., Corning, NY, cat. 354248) for the first three passages. All PDCs were cultured in complete DMEM/F-12 media containing advanced DMEM/F-12 (Invitrogen, cat. 12634028), 4.9% defined fetal bovine serum, heat inactivated (HyClone Laboratories Inc., Logan, UT, cat. SH30070.03HI), 389 ng/mL hydrocortisone (Sigma-Aldrich, cat. H4001), 9.7 ng/mL human EGF recombinant protein (Invitrogen, cat. PHG0313), 23.4 microg/mL adenine (Sigma-Aldrich, cat. A2786), 97.3 U/mL penicillin-streptomycin (Invitrogen, cat. 15140122), 1.9 mM L-glutamine (Invitrogen, cat. 25030081), and 9.7 microM Y-27632 dihydrochloride (Tocris Bioscience, Bristol, United Kingdom, cat. 1254). The PDCs were cultured in complete DMEM/F12 media without 10 microM Y-27632 dihydrochloride for at least two passages prior to the screen. The established cell lines NCI-H1341 and […] were cultured in DMEM/F-12, HEPES (Invitrogen, cat. 11330032), 5% defined fetal bovine serum (HyClone Laboratories Inc., cat. SH30070.03), ITS premix universal culture supplement [insulin (5 microg/mL), transferrin (5 microg/mL), and selenious acid (5 ng/mL)] […]

[1] = second compound 0.1 µM, first compound 0.0316 µM
[2] = second compound 0.1 µM, first compound 0.1 µM
[3] = second compound 0.1 µM, first compound 0.316 µM
[4] = second compound 0.1 µM, first compound 1 µM
[5] = second compound 0.1 µM, first compound 3.16 µM
[6] = second compound 0.1 µM, first compound 10 µM
[7] = second compound 0.316 µM, first compound 0.0316 µM
[8] = second compound 0.316 µM, first compound 0.1 µM
[9] = second compound 0.316 µM, first compound 0.316 µM
[10] = second compound 0.316 µM, first compound 1 µM
[11] = second compound 0.316 µM, first compound 3.16 µM
[12] = second compound 0.316 µM, first compound 10 µM
[13] = second compound 1 µM, first compound 0.0316 µM
[14] = second compound 1 µM, first compound 0.1 µM
[15] = second compound 1 µM, first compound 0.316 µM
[16] = second compound 1 µM, first compound 1 µM
[17] = second compound 1 µM, first compound 3.16 µM
[18] = second compound 1 µM, first compound 10 µM
[19] = second compound 3.16 µM, first compound 0.0316 µM
[20] = second compound 3.16 µM, first compound 0.1 µM
[21] = second compound 3.16 µM, first compound 0.316 µM
[22] = second compound 3.16 µM, first compound 1 µM
[23] = second compound 3.16 µM, first compound 3.16 µM
[24] = second compound 3.16 µM, first compound 10 µM
[25] = second compound 10 µM, first compound 0.0316 µM
[26] = second compound 10 µM, first compound 0.1 µM
[27] = second compound 10 µM, first compound 0.316 µM
[28] = second compound 10 µM, first compound 1 µM
[29] = second compound 10 µM, first compound 3.16 µM
[30] = second compound 10 µM, first compound 10 µM

Row | IC50 (second compound 0.1 µM) | IC50 (second compound 0.316 µM) | IC50 (second compound 1 µM) | IC50 (second compound 3.16 µM) | IC50 (second compound 10 µM) | SMILES | viability, T/C [1] | viability, T/C [2] | viability, T/C [3] | viability, T/C [4] | viability, T/C [5] | viability, T/C [6] | viability, T/C [7] | viability, T/C [8] | viability, T/C [9] | viability, T/C [10] | viability, T/C [11] | viability, T/C [12] | viability, T/C [13] | viability, T/C [14] | viability, T/C [15] | also measured
1 | > 10 µM | > 10 µM | > 10 µM | > 10 µM | < 0.0316 µM | COc1cc(Nc2ncc3c(n2)-c2ccc(Cl)cc2C(c2c(F)cccc2OC)=NC3)ccc1C(=O)O + Cc1cncc(-c2nc(NCCc3c[nH]c4ccccc34)c3ncn(C(C)C)c3n2)c1 | 91.4% | 94.7% | 99.6% | 101% | 85.6% | 65.1% | 93.5% | 93.2% | 107% | 90.5% | 88.2% | 66.9% | 98.5% | 81.7% | 104% | viability, T/C [16]: 99.2%; viability, T/C [17]: 86.7%; viability, T/C [18]: 62.5%; viability, T/C [19]: 55.6%; viability, T/C [20]: 62.4%; viability, T/C [21]: 70.1%; viability, T/C [22]: 59.4%; viability, T/C [23]: 61.1%; viability, T/C [24]: 53.3%; viability, T/C [25]: 6.12%; viability, T/C [26]: 5.86%; viability, T/C [27]: 6.53%; viability, T/C [28]: 6.24%; viability, T/C [29]: 8.49%; viability, T/C [30]: 12.8%
2 | > 10 µM | > 10 µM | > 10 µM | > 10 µM | < 0.0316 µM | CC1COCCN1c1cc(C2(S(C)(=N)=O)CC2)nc(-c2ccnc3[nH]ccc23)n1 (stereo not given) + Cc1cncc(-c2nc(NCCc3c[nH]c4ccccc34)c3ncn(C(C)C)c3n2)c1 | 120% | 115% | 111% | 102% | 92.1% | 66.2% | 119% | 119% | 116% | 113% | 105% | 60.4% | 106% | 107% | 118% | viability, T/C [16]: 111%; viability, T/C [17]: 98.2%; viability, T/C [18]: 62.5%; viability, T/C [19]: 62.5%; viability, T/C [20]: 57.2%; viability, T/C [21]: 59.1%; viability, T/C [22]: 64.5%; viability, T/C [23]: 55.3%; viability, T/C [24]: 43.3%; viability, T/C [25]: 8.31%; viability, T/C [26]: 8.78%; viability, T/C [27]: 9.14%; viability, T/C [28]: 8%; viability, T/C [29]: 9.08%; viability, T/C [30]: 11.8%
3 | 1.32 µM | 1.3 µM | 1.48 µM | 1.48 µM | 1.32 µM | Nc1ccccc1NC(=O)c1ccc(CNC(=O)OCc2cccnc2)cc1 + Cc1ccccc1N=Nc1ccc(NC(=O)c2ccnn2C)c(C)c1 | 100% | 90.9% | 85.2% | 62.2% | 16.1% | 0.74% | 100% | 86.2% | 82.5% | 62.1% | 16.4% | 1.06% | 97.6% | 95.2% | 95.5% | viability, T/C [16]: 66.4%; viability, T/C [17]: 17.6%; viability, T/C [18]: 1.6%; viability, T/C [19]: 89.5%; viability, T/C [20]: 79.6%; viability, T/C [21]: 93.3%; viability, T/C [22]: 66.2%; viability, T/C [23]: 16.9%; viability, T/C [24]: 1.24%; viability, T/C [25]: 61%; viability, T/C [26]: 62.5%; viability, T/C [27]: 64.9%; viability, T/C [28]: 59.5%; viability, T/C [29]: 19.6%; viability, T/C [30]: 1.69%
4 | > 10 µM | > 10 µM | > 10 µM | > 10 µM | > 10 µM | O=C(c1cc(Cc2n[nH]c(=O)c3ccccc23)ccc1F)N1CCN(C(=O)C2CC2)CC1 + Cc1ccccc1N=Nc1ccc(NC(=O)c2ccnn2C)c(C)c1 | 96.8% | 104% | 109% | 101% | 96.9% | 80.9% | 101% | 107% | 100% | 101% | 88.2% | 72.1% | 104% | 109% | 104% | viability, T/C [16]: 99.6%; viability, T/C [17]: 104%; viability, T/C [18]: 81.3%; viability, T/C [19]: 96.9%; viability, T/C [20]: 97.7%; viability, T/C [21]: 94.9%; viability, T/C [22]: 96.8%; viability, T/C [23]: 85.9%; viability, T/C [24]: 72.3%; viability, T/C [25]: 66.8%; viability, T/C [26]: 70.7%; viability, T/C [27]: 76.5%; viability, T/C [28]: 69.3%; viability, T/C [29]: 67.6%; viability, T/C [30]: 63.5%
